In brackets after ≈: the same amount, converted by molar mass.
Key:
S. aureus Mu50 [1] = assay: Bacteriostatic effect; format: cell-based; details: for MIC fold higher than that of SCA-50: S. aureus Mu50
[2] = tested on: S. aureus NorA and MepA efflux pump strains; format: cell-based; details: confirmed by MIC, Table 3
SaSecA1 [3] = biological target: T1, SaSecA1 (Staphylococcus aureus, UniProt O06446); format: biochemical; details: liposomes-oocytes, different concentrations of ATP
T1 sequence (O06446 1-843): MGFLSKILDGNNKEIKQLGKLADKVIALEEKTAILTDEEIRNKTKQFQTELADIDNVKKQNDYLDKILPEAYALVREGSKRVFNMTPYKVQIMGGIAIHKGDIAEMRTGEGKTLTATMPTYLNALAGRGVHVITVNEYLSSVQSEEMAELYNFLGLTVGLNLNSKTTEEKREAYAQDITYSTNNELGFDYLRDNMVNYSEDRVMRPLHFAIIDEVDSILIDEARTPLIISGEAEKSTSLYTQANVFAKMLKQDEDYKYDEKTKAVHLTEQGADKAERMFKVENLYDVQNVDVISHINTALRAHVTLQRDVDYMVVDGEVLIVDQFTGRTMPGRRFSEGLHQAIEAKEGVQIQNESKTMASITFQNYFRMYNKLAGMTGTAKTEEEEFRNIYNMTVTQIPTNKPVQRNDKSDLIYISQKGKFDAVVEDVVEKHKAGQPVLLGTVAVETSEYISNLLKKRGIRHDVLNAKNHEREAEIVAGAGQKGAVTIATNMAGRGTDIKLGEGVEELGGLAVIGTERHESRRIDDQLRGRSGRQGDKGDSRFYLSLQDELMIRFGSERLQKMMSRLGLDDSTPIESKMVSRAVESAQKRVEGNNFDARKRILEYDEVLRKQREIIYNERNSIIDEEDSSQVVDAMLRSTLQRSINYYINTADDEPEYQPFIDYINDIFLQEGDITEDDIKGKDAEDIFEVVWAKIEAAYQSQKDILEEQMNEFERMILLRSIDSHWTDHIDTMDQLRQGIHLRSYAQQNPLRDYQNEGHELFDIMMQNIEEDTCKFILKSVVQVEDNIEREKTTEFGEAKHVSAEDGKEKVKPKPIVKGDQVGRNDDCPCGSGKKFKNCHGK

S. aureus ATCC 6538 = assay: Effects of light on bactericidal result; format: cell-based; details: 40 µM, 2 hr, dark vs light
[4] = tested on: secretion of α-hemolysin, enterotoxin B, and TSST-1 by S. aureus Mu50; format: cell-based
S. aureus Mu50 [5] = format: cell-based; details: 10 µM, mid-log phase (OD600 ≈ 2.6), first 15 hr
SaSecA1 [6] = biological target: T1, SaSecA1; assay: Protein pull down assay from whole cell lysate; format: binding; details: 400 µM, S. aureus ATCC 6538 lysate, Streptavidin magnetic beads, Western blot

Molecule: CC1(C)S[C@@H]2[C@H](NC(=O)[C@H](N)c3ccccc3)C(=O)N2[C@H]1C(=O)O [Ampicillin]
- MIC fold higher than that of SCA-50 (S. aureus Mu50 [1]): 250 fold

Molecule: CC[C@H]1OC(=O)[C@H](C)[C@@H](O[C@H]2C[C@@](C)(OC)[C@@H](O)[C@H](C)O2)[C@H](C)[C@@H](O[C@@H]2O[C@H](C)C[C@H](N(C)C)[C@H]2O)[C@](C)(O)C[C@@H](C)C(=O)[C@H](C)[C@@H](O)[C@]1(C)O [Erythromycin]
- MIC fold higher than that of SCA-50 (S. aureus Mu50 [1]): 250 fold

Molecule: NC[C@H]1O[C@H](O[C@H]2[C@H](O)[C@@H](O[C@H]3O[C@H](CO)[C@@H](O)[C@H](N)[C@H]3O)[C@H](N)C[C@@H]2N)[C@H](O)[C@@H](O)[C@@H]1O [Kanamycin]
- MIC fold higher than that of SCA-50 (S. aureus Mu50 [1]): 250 fold

Molecule: O=C([O-])c1c(Cl)c(Cl)c(Cl)c(Cl)c1-c1c2cc(I)c(=O)c(I)c-2oc2c(I)c([O-])c(I)cc12.[Na+].[Na+] [RB, Rose Bengal]
- substrate of NorA efflux pump [2]: substrate of NorA

Molecule: CO[C@H]1/C=C/O[C@@]2(C)Oc3c(C)c(O)c4c(O)c(c(/C=N/N5CCN(C)CC5)c(O)c4c3C2=O)NC(=O)/C(C)=C\C=C\[C@H](C)[C@H](O)[C@@H](C)[C@@H](O)[C@@H](C)[C@H](OC(C)=O)[C@@H]1C [Rifampicin]
- MIC fold higher than that of SCA-50 (S. aureus Mu50 [1]): 250 fold

Molecule: CCCCCCC1c2ccc(O)cc2Oc2cc(O)ccc21 [SCA-50]
- manner of inhibition of translocation related ATPase activity of SaSecA1 (SaSecA1 [3]): non-competitive
- MIC (S. aureus Mu50 [1]; Staphylococcus aureus, MU50, read-out: MIC against S. aureus Mu50): 12.5 µM (≈ 3.73 µg/mL)
- effect of light on bactericidal effects (S. aureus ATCC 6538): not obviously affected by light
- amount of TSST-1 in the supernatant [4]: significantly decreased
- amount of enterotoxin B in the supernatant [4]: significantly decreased
- amount of α-hemolysin in the supernatant [4]: significantly decreased
- amount of extracellular proteins in the supernatant ([4]; 10 µM): reduced the amount of many extracellular proteins
- OD600 reading compared with control (S. aureus Mu50 [5]): didn’t obviously change

Molecule: O=C(CCCC[C@@H]1SC[C@@H]2NC(=O)N[C@@H]21)NCCCCCCC1c2ccc(O)cc2Oc2cc(O)ccc21 [SCA-254]
- pull down of SaSecA1 from whole cell lysates (SaSecA1 [6]): could recognize and pull down SaSecA1

Molecule: CN[C@@H](CC(C)C)C(=O)N[C@H]1C(=O)N[C@@H](CC(N)=O)C(=O)N[C@H]2C(=O)N[C@H]3C(=O)N[C@H](C(=O)N[C@@H](C(=O)O)c4cc(O)cc(O)c4-c4cc3ccc4O)[C@H](O)c3ccc(c(Cl)c3)Oc3cc2cc(c3O[C@H]2O[C@@H](CO)[C@H](O)[C@@H](O)[C@@H]2O[C@@H]2C[C@@](C)(N)[C@@H](O)[C@@H](C)O2)Oc2ccc(cc2Cl)[C@H]1O [Vancomycin]
- MIC fold higher than that of SCA-50 (S. aureus Mu50 [1]): two-fold higher

Molecule: polymyxin B [Polymxin B]
- Bacteriostatic effect MIC, S. aureus Mu50 (comparison with antibiotics) (S. aureus Mu50 [1]; Table 2, n = 6): 31 µg/mL

Reference: paper PMC4661110 (Bioorganic & medicinal chemistry, 2015)
